Experimental data from patent publication US20110105496A1, “Methods For The Treatment Of Myosin Heavy Chain-Mediated Conditions Using 4,7-Dihydrothieno[2,3-B]Pyridine Compounds” (priority 2005, published 2011).
Read-outs that look alike come from different tables or passages of the source.

Tested on: alpha-MyHC
Test: alpha-MyHC cytoblot process in neonatal rat ventricular myocytes (NRVM)
Assay type: cell-based
[1] = Table 2 (esters), NRVM, 72 hours, maximum of dose response fit
[2] = Table 1, NRVM, 72 hours, alpha-MyHC cytoblot, mean ± spread
[3] = Table 1, NRVM, 72 hours, maximum of dose response fit, low control = vehicle only
[4] = Table 2 (esters), NRVM, 72 hours, alpha-MyHC cytoblot

SMILES | EC50 [2] | Max Plateau [3] | further results
CCC1=C(C(=O)OCCOC)C(c2ccccc2F)c2c(sc(C(=O)c3cccc(Cl)c3)c2N)N1 (single isomer, unassigned) [Compound 179] |  |  | Max Plateau [1]: 237.11 ± 19.59 per cent fraction of low control
CC(=O)C1=C(C)Nc2sc(C(=O)c3ccc(Cl)c(Cl)c3)c(N)c2C1c1cccs1 (stereo not drawn) [Compound 41] | 369 nM | 178.47 ± 7.82 per cent fraction of low control | 
CC(=O)C1=C(C)Nc2sc(C(=O)c3ccc(Cl)c(Cl)c3)c(N)c2C1c1ccccc1O (stereo not drawn) [Compound 34] | 1250 nM | 184.69 ± 15.76 per cent fraction of low control | 
COC(=O)C1=C(C2CC2)Nc2sc(C(=O)c3ccc(Cl)c(Cl)c3)c(N)c2C1c1ccccc1F (stereo not drawn) [Compound 144] |  |  | EC50 [4]: 63.3 nM; Max Plateau [1]: 187.17 per cent fraction of low control
CCC1=C(C(=O)OC)C(c2ccnc(F)c2)c2c(sc(C(=O)c3cccc(Cl)c3)c2N)N1 (racemic) [Compound 175] |  |  | EC50 [4]: 0.183 nM; Max Plateau [1]: 289.91 per cent fraction of low control
CCC1=C(C(=O)OC(C)CC)C(c2ccccc2F)c2c(sc(C(=O)c3cccc(C#N)c3)c2N)N1 (single isomer, unassigned) [Compound 165] |  |  | EC50 [4]: 12 nM; Max Plateau [1]: 250.83 per cent fraction of low control
COC(=O)C1=C(C2CC2)Nc2sc(C(=O)c3ccc(Cl)c(Cl)c3)c(N)c2C1c1ccccc1 (stereo not drawn) [Compound 133] |  |  | EC50 [4]: 71.5 nM; Max Plateau [1]: 180.24 per cent fraction of low control
COC(=O)C1=C(C(C)(C)C)Nc2sc(C(=O)c3ccc(Cl)c(Cl)c3)c(N)c2C1c1ccccc1 (stereo not drawn) [Compound 131] |  |  | EC50 [4]: 2900 nM; Max Plateau [1]: 158.97 per cent fraction of low control
COc1ccc(C2C(C(C)=O)=C(C)Nc3sc(C(=O)c4ccccc4)c(N)c32)cc1 (stereo not drawn) [Compound 14] | 3030 nM | 182.73 ± 26.95 per cent fraction of low control | 
CCC1=C(C(=O)OC)C(c2ccc(F)cc2F)c2c(sc(C(=O)c3ccc(Cl)c(Cl)c3)c2N)N1 (stereo not drawn) [Compound 153] |  |  | EC50 [4]: 15.3 nM; Max Plateau [1]: 234.66 per cent fraction of low control
CC(=O)C1=C(C)Nc2sc(C(=O)c3ccccc3)c(N)c2C1C1CCCCC1 (stereo not drawn) [Compound 26] | 943 nM | 185.33 ± 55.04 per cent fraction of low control | 
COC(=O)C1=C(C2CC2)Nc2sc(C(=O)c3cccc(Cl)c3)c(N)c2C1c1ccnc(F)c1 (racemic) [Compound 176] |  |  | EC50 [4]: 42.1 nM; Max Plateau [1]: 218.25 per cent fraction of low control
CC(=O)C1=C(C)Nc2sc(C(=O)c3ccccc3)c(N)c2C1c1cccnc1 (stereo not drawn) [Compound 20] |  | 127.35 ± 23.71 per cent fraction of low control | 
CCC1=C(C(=O)OC)C(c2cccc(Cl)c2F)c2c(sc(C(=O)c3ccc(Cl)c(Cl)c3)c2N)N1 (stereo not drawn) [Compound 155] |  |  | EC50 [4]: 19.3 nM; Max Plateau [1]: 224.86 per cent fraction of low control
CC(=O)C1=C(C)Nc2sc(C(=O)c3ccc(Cl)c(Cl)c3)c(N)c2C1c1ccc(C(C)(C)C)cc1 (stereo not drawn) [Compound 32] |  | 100.00 ± 0.00 per cent fraction of low control | 
CC(=O)C1=C(C)Nc2sc(C(=O)c3ccccc3)c(N)c2C1c1ccc(C(F)(F)F)cc1 (stereo not drawn) [Compound 44] | 1720 nM | 186.67 ± 11.55 per cent fraction of low control | 

SMILES | EC50 [2] | Max Plateau [3] | further results
CCCCNC(=O)C1=C(C)Nc2sc(C(=O)c3ccc(Cl)c(Cl)c3)c(N)c2C1c1ccccc1 (racemic) [Compound 196] |  |  | EC50 (Table 3 (amides), NRVM, 72 hours, alpha-MyHC cytoblot): 334000 nM; Max Plateau (Table 3 (amides), NRVM, 72 hours, maximum of dose response fit): 121.93 ± 25.12 per cent fraction of low control
CC(=O)C1=C(C)Nc2sc(C(=O)c3ccccc3)c(N)c2C1c1ccc(F)cc1 (stereo not drawn) [Compound 37] | 281 nM | 227.92 ± 12.46 per cent fraction of low control | 
CC(=O)C1=C(C)Nc2sc(C(=O)c3ccc(Cl)c(Cl)c3)c(N)c2C1(C)c1cccc(F)c1 (stereo not drawn) [Compound 207, 1-[3-amino-2-(3,4 dichloro-benzoyl)-4-(3 fluoro-phenyl)-4,6-dimethyl-4,7 dihydro-thieno[2,3-b]pyridin-5-yl]-ethanone] |  |  | Max Plateau (Table 4, NRVM, 72 hours, maximum of dose response fit): 148.73 ± 27.95 per cent fraction of low control
CCC1=C(C(=O)OCCOC)C(c2ccnc(F)c2)c2c(sc(C(=O)c3cccc(Cl)c3)c2N)N1 (single isomer, unassigned) [Compound 191] |  |  | Max Plateau [1]: 263.67 ± 1.13 per cent fraction of low control
CCC1=C(C(=O)OCCN)C(c2ccccc2F)c2c(sc(C(=O)c3ccc(Cl)c(Cl)c3)c2N)N1 (stereo not drawn) [compound 221] |  |  | EC50: 22.7 nM; Max Plateau: 156.50 ± 9.76
CC(=O)C1=C(C)Nc2sc(C(=O)c3ccc(Cl)c(Cl)c3)c(N)c2C1c1ccc(C(F)(F)F)cc1 (stereo not drawn) [Compound 48] | 5110 nM | 190.81 ± 37.09 per cent fraction of low control | 
CC(=O)C1=C(C)Nc2sc(C(=O)c3ccccc3)c(N)c2C1c1ccc(Cl)cc1 (stereo not drawn) [Compound 21] | 583 nM | 193.20 ± 49.26 per cent fraction of low control | 
CCC(=O)C1=C(CC)Nc2sc(C(=O)c3ccc(Cl)c(Cl)c3)c(N)c2C1c1ccnc(Cl)c1 (stereo not drawn) [Compound 99] | 5.23 nM | 264.37 ± 33.84 per cent fraction of low control | 
CCC(=O)C1=C(CC)Nc2sc(C(=O)c3ccc(F)c(F)c3)c(N)c2C1c1ccccc1F (stereo not drawn) [Compound 108, 1-[3-amino-2-(3,4 difluoro-benzoyl)-6-ethyl-4-(2 fluoro-phenyl)-4,7 dihydro-thieno[2,3-b]pyridine-5-yl]propan-1-one] |  | 266.30 ± 58.14 per cent fraction of low control | 
CCC(=O)C1=C(CC)Nc2sc(C(=O)c3ccc(Cl)c(Cl)c3)c(N)c2C1c1ccccc1F (racemic) [Compound 39, 1-[3-amino-2-(3,4-dichloro-benzoyl)-6-ethyl-4-(2-fluoro-phenyl)-4,7-dihydro-thieno[2,3b]pyridin-5-yl]-propan-1-one] |  |  | EC50 (Rattus norvegicus, Ventricular myocyte, Table 1, NRVM, 72 hours, alpha-MyHC cytoblot, mean ± spread): 17.1 nM; Emax (Rattus norvegicus, Ventricular myocyte, Table 1, NRVM, 72 hours, maximum of dose response fit, low control = vehicle only, read-out: Max Plateau): 273 ± 37.3%
CC(=O)C1=C(C)Nc2sc(C(=O)c3ccc(Cl)c(Cl)c3)c(N)c2C1c1ccc(CNC(=O)OC(C)(C)C)cc1 (stereo not drawn) [Compound 25] |  | 100.00 ± 0.00 per cent fraction of low control | 
CC(=O)C1=C(C)Nc2sc(C(=O)c3ccc(C)c(C)c3)c(N)c2C1c1ccccc1 (stereo not drawn) [Compound 8] | 797 nM | 172.29 ± 9.66 per cent fraction of low control | 
CCC1=C(C(=O)OCCOC)C(c2ccccc2F)c2c(sc(C(=O)c3cccc(C#N)c3)c2N)N1 (racemic) [Compound 178] |  |  | Max Plateau [1]: 258.67 ± 45.31 per cent fraction of low control
COC(=O)c1cccc(C(=O)c2sc3c(c2N)C(c2ccccc2)C(C(C)=O)=C(C)N3)c1 (stereo not drawn) [Compound 62] | 361 nM | 279.31 ± 67.94 per cent fraction of low control | 
N[C@@H](Cc1cc(I)c(Oc2ccc(O)c(I)c2)c(I)c1)C(=O)O [Compound T3, 3,5,3′-triiodo-L-thyronine, reference compound] |  |  | Relative Light Unit (RLU) values (high control, 3 nM T3, low control (vehicle only) 2,000-3,000): 8,000-10,000 RLU

Now from value to compound, other results behind:

EC50 [2] | SMILES | Max Plateau [3] | further results
50.5 nM | CCCC(=O)C1=C(CCC)Nc2sc(C(=O)c3cc(Cl)ccc3Cl)c(N)c2C1c1ccccc1F (stereo not drawn) [Compound 92] | 189.00 ± 25.40 per cent fraction of low control | 
10.5 nM | CCC(=O)C1=C(CC)Nc2sc(C(=O)c3cccnc3)c(N)c2C1c1ccnc(F)c1 (stereo not drawn) [Compound 103] | 254.65 ± 31.26 per cent fraction of low control | 
24.2 nM | CCC(=O)C1=C(CC)Nc2sc(C(=O)c3cc(F)cc(F)c3)c(N)c2C1c1ccccc1 (stereo not drawn) [Compound 76] | 230.70 ± 23.22 per cent fraction of low control | 
0.249 nM | CCC(=O)C1=C(CC)Nc2sc(C(=O)c3ccc(Cl)c(Cl)c3)c(N)c2C1c1ccc(O)cc1Cl (stereo not drawn) [Compound 83] | 274.88 ± 44.56 per cent fraction of low control | 
8.92 nM | CCC(=O)C1=C(CC)Nc2sc(C(=O)c3cc(C(F)(F)F)cc(C(F)(F)F)c3)c(N)c2C1c1ccccc1 (stereo not drawn) [Compound 73] | 205.27 ± 38.78 per cent fraction of low control | 
350 nM | CCC(=O)C1=C(CC)Nc2sc(C(=O)c3ccc(Cl)c(Cl)c3)c(N)c2C1c1ccc(OC)cc1F (stereo not drawn) [Compound 81] | 184.00 ± 15.51 per cent fraction of low control | 
5.73 nM | CCC(=O)C1=C(CC)Nc2sc(C(=O)c3ccc(Cl)c(Cl)c3)c(N)c2C1c1cc(F)cc(F)c1 (stereo not drawn) [Compound 100] | 262.04 ± 31.65 per cent fraction of low control | 
4.99 nM | CCC(=O)C1=C(CC)Nc2sc(C(=O)c3ccc(Cl)c(Cl)c3)c(N)c2C1c1ccnc(F)c1 (stereo not drawn) [Compound 98] | 255.02 ± 32.01 per cent fraction of low control | 
9.69 nM | CCC(=O)C1=C(CC)Nc2sc(C(=O)c3ccc(Cl)c(C)c3)c(N)c2C1c1ccccc1 (stereo not drawn) [Compound 89] | 230.09 ± 19.81 per cent fraction of low control | 
1.64 nM | CCC(=O)C1=C(CC)Nc2sc(C(=O)c3cccc([N+](=O)[O-])c3)c(N)c2C1c1ccccc1F (stereo not drawn) [Compound 97] | 247.24 ± 38.88 per cent fraction of low control | 
61.3 nM | CCC(=O)C1=C(CC)Nc2sc(C(=O)c3ccc(Cl)c(Cl)c3)c(N)c2C1c1cccnc1 (stereo not drawn) [Compound 75] | 226.71 ± 40.80 per cent fraction of low control | 
2140 nM | CCC(=O)C1=C(CC)Nc2sc(C(=O)c3cccc(C(=O)O)c3)c(N)c2C1c1ccccc1 (stereo not drawn) [Compound 77] | 220.00 ± 10.00 per cent fraction of low control | 
0.59 nM | CCC(=O)C1=C(CC)Nc2sc(C(=O)c3ccc(Cl)c(Cl)c3)c(N)c2C1c1cccc(Cl)c1 (stereo not drawn) [Compound 54] | 267.44 ± 32.29 per cent fraction of low control | 
31.7 nM | CCC(=O)C1=C(CC)Nc2sc(C(=O)c3ccccc3)c(N)c2C1c1c(F)cccc1F (stereo not drawn) [Compound 69] | 221.36 ± 15.94 per cent fraction of low control | 
